Test [1] concerns the target T1, Bcl-2-like protein 1 (Homo sapiens, UniProt Q07817). Description: Fluorescence Polarization Assay and FL5.12 Cellular Assay. The protocol:
(§1) The binding affinities (Ki) of compounds were determined using fluorescence polarization assays (FPA) that measure their ability to competitively displace a Bad-derived peptide from Bcl-xL. Compound efficacy (EC50) in a cellular context was evaluated by testing their ability to reverse the protection from cytokine withdrawal afforded by overexpression of Bcl-xL in the IL-3 dependent murine pro-B cell line FL5.12.
(In general: Polarisation of emitted light reports the rotation of a fluorescent probe.)

Test [2] can be described thus: The binding affinities (Ki) of compounds were determined using fluorescence polarization assays (FPA) that measure their ability to competitively displace a Bad-derived peptide from Bcl-xL. Compound efficacy (EC50) in a cellular context was evaluated by testing their ability to reverse the protection from cytokine w.
The target in test [3] is Apoptosis regulator Bcl-2 (Homo sapiens, UniProt P10415). Briefly: Fluorescence Polarization Assay and FL5.12 Cellular Assay. The procedure: as §1
Test [4] deals with T1, Bcl-2-like protein 1. Briefly: Fluorescence Polarization (FP) Assay and FL5.12 Cellular Assay. The settings on record: pH 7.4; 25 °C. The procedure:
The binding affinities (Ki) of compounds were determined using fluorescence polarization assays (FPA) that measure their ability to competitively displace a Bad-derived peptide from Bcl-xL. […] Compound efficacy (EC50) in a cellular context was evaluated by testing their ability to reverse the protection from cytokine withdrawal afforded by overexpression of Bcl-xL in the IL-3 dependent murine pro-B cell line FL5.12.

A short description of test [5]: The binding affinities (Ki) of compounds were determined using fluorescence polarization assays (FPA) that measure their ability to competitively displace a Bad-derived peptide from Bcl-xL. IC50 values were binding affinities measured in the presence of 10% human serum. Compound efficacy (EC50) in a cellular co. The settings on record: pH 7.4.

As a reminder, the Ki is the equilibrium dissociation constant of an inhibitor or competing ligand from its target. Higher therefore signals weaker binding. In general, EC50 refers to the concentration at which the effect is half-maximal. Usually IC50 stands for the point on the concentration scale where inhibition reaches its midpoint. Higher therefore signals weaker potency in that assay.

The structures appear in SMILES notation. Values joined by “and” are separate entries in the source; they are usually repeats but may differ in a detail not shown here. Identical values can stand only once.

T1 sequence (Q07817 whole entry): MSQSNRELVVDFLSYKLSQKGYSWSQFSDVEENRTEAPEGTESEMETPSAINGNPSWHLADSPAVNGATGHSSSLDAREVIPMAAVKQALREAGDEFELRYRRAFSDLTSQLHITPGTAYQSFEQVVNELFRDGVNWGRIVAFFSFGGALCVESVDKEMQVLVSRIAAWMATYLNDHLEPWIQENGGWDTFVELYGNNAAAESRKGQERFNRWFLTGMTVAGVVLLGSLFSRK
Sequence of Apoptosis regulator Bcl-2 (P10415 whole entry): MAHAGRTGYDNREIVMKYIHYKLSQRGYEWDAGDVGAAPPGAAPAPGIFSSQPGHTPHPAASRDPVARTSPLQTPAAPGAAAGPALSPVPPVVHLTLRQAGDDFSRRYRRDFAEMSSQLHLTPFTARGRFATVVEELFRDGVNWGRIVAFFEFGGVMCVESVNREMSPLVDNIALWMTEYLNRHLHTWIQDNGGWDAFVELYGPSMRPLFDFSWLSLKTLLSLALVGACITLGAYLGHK

`CN(C)CC[C@H](CSc1ccccc1)Nc1ccc(S(=O)(=O)NC(=O)c2ccc(N3CCN(Cc4ccccc4-c4ccc(S(C)(=O)=O)cc4)CC3)cc2)cc1[N+](=O)[O-]` [N-[(4-{[(2R)-4-(dimethylamino)-1-(phenylsulfanyl)butan-2-yl]amino}-3-nitrobenzene)sulfonyl]-4-(4-{[2-(4-methanesulfonylphenyl)phenyl]methyl}piperazin-1-yl)benzamide] showed a Ki in test [1] of 9.1 nM. Besides, in test [2], the EC50 is 460 nM and 530 nM.
Regarding `CCCCC1(OC)CCN(c2ccc(C(=O)NS(=O)(=O)c3ccc(N[C@H](CCN(C)C)CSc4ccccc4)c([N+](=O)[O-])c3)cc2)CC1` [4-(4-butyl-4-methoxypiperidin-1-yl)-N-[(4-{[(2R)-4-(dimethylamino)-1-(phenylsulfanyl)butan-2-yl]amino}-3-nitrobenzene)sulfonyl]benzamide], in test [3], the midpoint of the response, the EC50, lay at 3000 nM and the Ki came to 20 nM. In test [4], this compound gave an EC50 of 8000 nM, an IC50 of 312 nM and a Ki of 1.3 nM.
On to `CN(C)CC[C@H](CSc1ccccc1)Nc1ccc(S(=O)(=O)NC(=O)c2ccc(N3CCC(=Cc4ccccc4F)CC3)cc2)cc1[N+](=O)[O-]` [N-[(4-{[(2R)-4-(dimethylamino)-1-(phenylsulfanyl)butan-2-yl]amino}-3-nitrobenzene)sulfonyl]-4-{4-[(2-fluorophenyl)methylidene]piperidin-1-yl}benzamide], for which the values for the EC50 in test [5] and in test [2] were 250 nM and 350 nM, respectively.
As for `COC1(CC(C)C)CCN(c2ccc(C(=O)NS(=O)(=O)c3ccc(N[C@H](CCN(C)C)CSc4ccccc4)c([N+](=O)[O-])c3)cc2)CC1` [N-[(4-{[(2R)-4-(dimethylamino)-1-(phenylsulfanyl)butan-2-yl]amino}-3-nitrobenzene)sulfonyl]-4-[4-methoxy-4-(2-methylpropyl)piperidin-1-yl]benzamide], the EC50 in test [5] turned out to be 580 nM; in test [2] it was 700 nM.

Values taken from BindingDB's records for doi:10.1021/jm061152t (Abbott Laboratories, 2007).
